Experimental data: patent US10626112B2, “Heterocyclic sulfonamide derivative and medicine comprising same” (EA PHARMA CO., LTD., priority 2014, dated 2020)
pIC50: −log10 of the molar value.

Legend:
[1] = target: T1, human TRPA1 (Homo sapiens (Human), UniProt O75762); test: Measurement of TRPA1 antagonist activity (1): intracellular calcium increase; type: cell-based; settings: 293T cells transfected with human TRPA1 expression plasmid; allylisothiocyanate 20 μM stimulation; intracellular calcium fluorescence; read-out: hTRPA1 IC50
Summary of the method: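 Calcium-flux readout of TRPA1 block: compound given 10 min before 20 μM (final) allylisothiocyanate, fluorescence tracked 5 min. Cells were 293T transiently expressing human TRPA1, dye-loaded 1 hr in HBSS, 20 mM HEPES, pH 7.2. Inhibition scaled between agonist-only and buffer-only responses; IC50 by sigmoid fitting.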

[2] = target: T1, human TRPA1; test: Measurement of TRPA1 antagonist activity (2): as (1), different lot of human TRPA1 expression plasmid; type: cell-based; settings: 293T cells transfected with human TRPA1, allylisothiocyanate 20 μM stimulation, calcium fluorescence, read-out: hTRPA1 IC50
Summary of the method: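 HEK293T cells transiently transfected with human TRPA1 plasmid (different lot), loaded with Calcium4 dye in HBSS/20 mM HEPES pH 7.2. Test compound preincubated 10 min, then allylisothiocyanate added at 20 μM final and fluorescence change read for 5 min. IC50 from sigmoid fit of inhibition relative to AITC-alone and buffer controls.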

T1 sequence (O75762 whole entry): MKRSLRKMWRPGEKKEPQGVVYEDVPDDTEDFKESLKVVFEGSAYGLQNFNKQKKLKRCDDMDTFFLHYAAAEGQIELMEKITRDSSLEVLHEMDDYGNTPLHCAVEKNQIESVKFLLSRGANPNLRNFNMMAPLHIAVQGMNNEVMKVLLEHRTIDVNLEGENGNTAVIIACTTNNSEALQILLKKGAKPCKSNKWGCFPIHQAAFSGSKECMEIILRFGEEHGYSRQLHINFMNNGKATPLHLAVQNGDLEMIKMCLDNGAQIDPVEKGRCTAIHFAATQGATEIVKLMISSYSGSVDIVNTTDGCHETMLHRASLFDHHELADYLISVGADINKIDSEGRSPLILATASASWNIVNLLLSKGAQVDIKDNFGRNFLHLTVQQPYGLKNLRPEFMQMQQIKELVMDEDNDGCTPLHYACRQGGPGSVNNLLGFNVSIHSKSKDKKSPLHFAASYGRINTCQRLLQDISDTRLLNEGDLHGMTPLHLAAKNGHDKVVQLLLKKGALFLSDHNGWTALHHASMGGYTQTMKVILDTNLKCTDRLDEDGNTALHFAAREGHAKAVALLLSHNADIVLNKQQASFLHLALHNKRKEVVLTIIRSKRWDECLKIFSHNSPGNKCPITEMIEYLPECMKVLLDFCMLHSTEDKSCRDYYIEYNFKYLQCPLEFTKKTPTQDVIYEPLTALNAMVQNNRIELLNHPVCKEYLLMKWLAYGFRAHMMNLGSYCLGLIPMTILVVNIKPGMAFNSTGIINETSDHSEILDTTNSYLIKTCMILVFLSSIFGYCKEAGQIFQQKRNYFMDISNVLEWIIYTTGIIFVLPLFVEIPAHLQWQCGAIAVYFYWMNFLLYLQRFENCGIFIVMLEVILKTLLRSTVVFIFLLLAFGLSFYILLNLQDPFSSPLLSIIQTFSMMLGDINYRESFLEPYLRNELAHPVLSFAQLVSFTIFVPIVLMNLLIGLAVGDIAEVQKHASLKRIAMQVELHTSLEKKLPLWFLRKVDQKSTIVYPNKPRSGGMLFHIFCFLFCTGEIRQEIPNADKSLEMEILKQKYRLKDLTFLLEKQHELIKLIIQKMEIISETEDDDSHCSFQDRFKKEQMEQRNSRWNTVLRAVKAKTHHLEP

pIC50 [1] | pIC50 [2] | SMILES
7.59 | 7.28 | O=C(NCc1cncc(-c2ccc(C(F)(F)F)cn2)c1)[C@@H]1CCCN1S(=O)(=O)c1cc2ccccc2o1 [Example 87, (2S)-1-(benzofuran-2-ylsulfonyl)-N-[[5-[5-(trifluoromethyl)-2-pyridyl]-3-pyridyl]methyl]pyrrolidine-2-carboxamide]
8.89 | 8.39 | O=C(NCc1cc(-c2ccc(C(F)(F)F)cn2)ccn1)[C@@H]1CCCN1S(=O)(=O)c1cc2ccccc2o1 [Example 179, (2S)-1-(benzofuran-2-ylsulfonyl)-N-[[4-[5-(trifluoromethyl)-2-pyridyl]-2-pyridyl]methyl]pyrrolidine-2-carboxamide]
7.92 | 7.46 | C[C@H](NS(=O)(=O)c1cc2cc(F)ccc2o1)C(=O)NCc1cc(-c2ccc(C(F)(F)F)nc2)ncn1 [Example 191, (2S)-2-[(5-fluorobenzofuran-2-yl)sulfonylamino]-N-[[6-[6-(trifluoromethyl)-3-pyridyl]pyrimidin-4-yl]methyl]propanamide]
– | 8.52 | CCN([C@@H](C)C(=O)NCc1cc(-c2ccc(C(F)(F)F)cc2)ncn1)S(=O)(=O)c1cc2cc(F)ccc2o1 [Example 422, (2S)-2-[ethyl-(5-fluorobenzofuran-2-yl)sulfonyl-amino]-N-[[6-[4-(trifluoromethyl)phenyl]pyrimidin-4-yl]methyl]propanamide]
– | 7.48 | O=C(CN(CC1CCNCC1)S(=O)(=O)c1cc2cc(F)ccc2o1)NCc1cc(-c2ccc(C(F)(F)F)cn2)ccn1 [Example 423, 2-[(5-fluorobenzofuran-2-yl)sulfonyl-(4-piperidylmethyl)amino]-N-[[4-[5-(trifluoromethyl)-2-pyridyl]-2-pyridyl]methyl]acetamide]
– | 7.68 | O=C(CN(CC1CCNCC1)S(=O)(=O)c1cc2cc(F)ccc2o1)NCc1cc(-c2ccc(C(F)(F)F)cc2)ncn1 [Example 424, 2-[(5-fluorobenzofuran-2-yl)sulfonyl-(4-piperidylmethyl)amino]-N-[[6-[4-(trifluoromethyl)phenyl]pyrimidin-4-yl]methyl]acetamide]
– | 8.11 | C[C@@H](C(=O)NCc1cc(-c2ccc(C(F)(F)F)cn2)ccn1)N(C)S(=O)(=O)c1cc2cc(F)ccc2o1 [Example 426, (2S)-2-[(5-fluorobenzofuran-2-yl)sulfonyl-methyl-amino]-N-[[4-[5-(trifluoromethyl)-2-pyridyl]-2-pyridyl]methyl]propanamide]
– | 6.77 | O=C(NCc1cc(-c2ccc(C(F)(F)F)cn2)ccn1)C(CF)NS(=O)(=O)c1cc2cc(F)ccc2o1 (centres unmarked) [Example 427, 3-fluoro-2-[(5-fluorobenzofuran-2-yl)sulfonylamino]-N-[[4-[5-(trifluoromethyl)-2-pyridyl]-2-pyridyl]methyl]propanamide]
